According to patent US9056111B1, “Selective efflux inhibitors and related pharmaceutical compositions and methods of treatment” (STC.UNM, priority 2011, dated 2015):
Values after ≈ are worked out from the molar mass of the structure shown. Read-outs that look alike come from different tables or passages of the source.

Legend:
Jurkat-DNR cells = experiment: Direct cytotoxicity (Toxic Dose 50) without chemotherapeutic; conditions: Jurkat-DNR cells, inhibitor without chemotherapeutic
Experimental: Cells (ABCB1, Jurkat-DNR or ABCG2 Ig-MXP3) are incubated with the test compound (3 order of magnitude concentration range) over a 3-day and 7-day period in the presence of the inhibitor and chemotherapeutic (ABCB1, DNR or ABCG2 MTX), such that a cell concentration of at least 1×10^5 cells/mL is maintained. Cell viability is determined by trypan blue staining and enumeration under light microscopy. […] A chemoreversal index (Chemoreversal 50, CR50) is determined from the viability assessment. Using a similar approach, a direct cytotoxicity index (Toxic Dose 50, TD50) is determined by assessment of cell death of cells grown in media alone.
Cells (ABCB1, Jurkat-DNR or ABCG2 Ig-MXP3) were incubated with the test compound in a 3 order of magnitude concentration range over three and seven day periods in the presence of the inhibitor and chemotherapeutic (ABCB1, 100 nM DNR or ABCG2 30 nM MTX), such that a cell concentration of at least 1×10^5 cells mL^−1 was maintained. Cell viability was determined by trypan blue staining and enumeration under light microscopy. […] A chemoreversal index (Chemoreversal 50, CR50) was determined from the viability assessment. Using a similar approach, a direct cytotoxicity index (Toxic Dose 50, TD50) was determined by assessment of cell death of cells grown in media alone.

ABCG2 = target: T1, ABCG2 (Homo sapiens, UniProt Q9UNQ0); experiment: JC-1 efflux inhibition dose response, flow cytometry, Ig-MXP3 cells
T1 sequence (Q9UNQ0 1-655): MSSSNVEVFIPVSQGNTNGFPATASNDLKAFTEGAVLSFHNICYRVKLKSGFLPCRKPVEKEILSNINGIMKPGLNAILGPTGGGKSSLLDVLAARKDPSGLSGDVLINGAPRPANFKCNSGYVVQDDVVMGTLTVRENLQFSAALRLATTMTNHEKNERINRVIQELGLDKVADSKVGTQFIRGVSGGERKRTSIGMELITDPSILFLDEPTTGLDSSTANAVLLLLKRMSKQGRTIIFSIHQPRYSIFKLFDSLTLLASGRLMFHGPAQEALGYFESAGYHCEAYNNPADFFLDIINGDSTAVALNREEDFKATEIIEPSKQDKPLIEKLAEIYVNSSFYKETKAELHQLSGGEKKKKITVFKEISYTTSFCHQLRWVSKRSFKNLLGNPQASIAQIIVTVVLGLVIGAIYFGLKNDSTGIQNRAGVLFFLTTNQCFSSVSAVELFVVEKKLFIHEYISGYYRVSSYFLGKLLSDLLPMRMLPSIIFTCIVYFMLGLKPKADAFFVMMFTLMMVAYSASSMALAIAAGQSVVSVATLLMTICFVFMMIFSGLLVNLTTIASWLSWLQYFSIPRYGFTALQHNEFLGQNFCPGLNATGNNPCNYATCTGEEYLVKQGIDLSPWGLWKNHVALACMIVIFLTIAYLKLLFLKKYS
Procedure, shortened: (§1)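 Ig-MXP3 (ABCG2) and Jurkat-DNR (ABCB1) cells, run separately, are pre-stained with 1 μM JC-1 and added to compound in PBS; retained dye is read by high-throughput flow cytometry with time-gated analysis.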

ABCB1 / ABCG2 = target: T2, ABCB1 / ABCG2 (Homo sapiens, UniProt Q9UNQ0); experiment: as above; conditions: human, probe JC-1 (1 µM), ~Fold G2 Selective (B1/G2), quotient of average ABCB1 IC50 and average ABCG2 IC50, efflux assay
T2 sequence (Q9UNQ0 1-655): T1 sequence (Q9UNQ0 1-655)
Procedure, shortened: as §1

[1] = system: ABCG2 over-expressing Ig-MXP3 cells; experiment: Chemoreversal assay: potentiation of mitoxantrone (MTX) killing; format: cell-based
50 kinases = experiment: Kinase profiling (KinaseSeeker, split-luciferase); format: biochemical; conditions: 10 μM
Experimental: Since ABC transporters are ATP dependent efflux pumps and several kinase targets have been implicated in the patent literature with structurally similar scaffolds, SID 88095709 was profiled against 50 kinasesat a single concentration of 10 μM to assess promiscuity of the chemotype.^66 SID 88095709 was dissolved in DMSO and tested at a final concentration of 10 μM. Prior to initiating a profiling campaign, the compound was evaluated for false positive against split-luciferase. Profiling was done in duplicate for SID 88095709 against each kinase. The Percent Inhibition and Percent Activity Remaining arecalculated using the following equation: % Inhibition=ALUControl−ALUSample×100 ALUControl % Activity Remaining=100−% Inhibition The team has also submitted SID 88095709 and the analog SID 97301789 to the NIH National Cancer Institute to elucidate the effect of SID 88095709 on the cancer cell line panel. Discussion

[2] = Flow cytometric kinetic solubility; format: physicochemical; conditions: kinetic from dmso stock
Text: Applying a flow cytometrickinetic solubility protocol,^65 we were also able to compare solubility across primary, secondary, and profiling buffer conditions in house. […] This is approximately three fold higher than reported above; however, our protocol uses 1% DMSO as compared to 0.1%. […] The presence of fetal bovine serum also affects compound availability and in the primary assay screening buffer (6.7% FBS in PBS, 1% DSMO) the precipitation was inhibited slightly with no particulate noted at 3 μg/mL. […] In general, we are confident that compound availability is sufficient for the concentration ranges discussed for this scaffold set in our described biological systems.

## O=C(c1ccoc1)N1CCN(c2cc(-c3ccco3)nc3cc(-c4ccccc4)nn23)CC1 [Compound 1, (4-(5-(furan-2-yl)-2-phenylpyrazolo[1,5-a]pyrimidin-7-yl)piperazin-1-yl)(furan-3-yl)methanone]
Jurkat-DNR cells
  TD50 ABCB1: 5.52 µM
Jurkat-DNR cells; listed as SID 88095709
  TD50 ABCB1: 5.5 µM
ABCG2
  EC50: 130 nM
  IC50: 130 ± 300 nM
ABCG2; JC-1 efflux reporter system
  fold higher potency in ABCG2 than the prior art Ko143: approximately 100 fold
ABCG2; quotient of average ABCB1 IC50 and average ABCG2 IC50, efflux assay
  ~Fold G2 Selective (B1/G2): 35.8 fold
ABCB1 / ABCG2
  selectivity ratio at 30 min: 36
[1]; ABCG2 vs ABCB1
  selectivity in chemoreversal (cell killing assay): 1.8 fold
[1]; Ig-MXP3 cells, constant 30 nM MTX, varied inhibitor dose, read-out: CR50 ABCG2
  EC50: 310 nM
50 kinases
  kinase inhibition profile: appears to not be a kinase inhibitor
[2]; PBS with 1% DMSO, pH 7.4, aqueous buffer, PBS alone, 1% DMSO, read-out: kinetic solubility
  solubility kinetic: 2 µg/mL (≈ 4.55 µM)
[2]; growth media (RPMI with 10% FBS, 1% DMSO), plasma or biological fluid, read-out: kinetic solubility, no precipitate forming at
  solubility kinetic: ≥ 6 µg/mL
[2]; primary assay screening buffer (6.7% FBS in PBS, 1% DMSO), plasma or biological fluid, read-out: kinetic solubility, no particulate noted at
  solubility kinetic: ≥ 3 µg/mL
